“And” between values parts separate entries of the source, which are not always exact repeats. Equal entries are not always repeated.
SMILES: C[C@@H](O[C@H]1OCCN(Cc2n[nH]c(=O)[nH]2)[C@H]1c1ccc(F)cc1)c1cc(C(F)(F)F)cc(C(F)(F)F)c1
- solubility (mole fraction) (in acetone, 284.75 K): 0.00512
- solubility (mole fraction) (in acetone, 289.85 K): 0.00582
- solubility (mole fraction) (in acetone, 291.45 K): 0.00601
- solubility (mole fraction) (in acetone, 295.95 K): 0.00663
- solubility (mole fraction) (in acetone, 299.85 K): 0.00719
- solubility (mole fraction) (in acetone, 301.45 K): 0.00741
- solubility (mole fraction) (in acetone, 303.75 K): 0.00778
- solubility (mole fraction) (in acetone, 305.65 K): 0.00808
- solubility (mole fraction) (in acetone, 307.55 K): 0.0084
- solubility (mole fraction) (in acetone, 313.85 K): 0.00955
- solubility (mole fraction) (in acetone, 317.75 K): 0.0104
- solubility (mole fraction) (in acetone, 324.65 K): 0.0118
- solubility (mole fraction) (in acetonitrile, 285.55 K): 0.000172
- solubility (mole fraction) (in acetonitrile, 289.55 K): 0.000196
- solubility (mole fraction) (in acetonitrile, 293.45 K): 0.000235
- solubility (mole fraction) (in acetonitrile, 295.95 K): 0.000262
- solubility (mole fraction) (in acetonitrile, 302.85 K): 0.000344
- solubility (mole fraction) (in acetonitrile, 304.35 K): 0.000368
- solubility (mole fraction) (in acetonitrile, 306.55 K): 0.000398
- solubility (mole fraction) (in acetonitrile, 309.55 K): 0.000444
- solubility (mole fraction) (in acetonitrile, 312.35 K): 0.000509
- solubility (mole fraction) (in acetonitrile, 318.85 K): 0.00063
- solubility (mole fraction) (in acetonitrile, 320.85 K): 0.00067
- solubility (mole fraction) (in acetonitrile, 327.95 K): 0.000853
- solubility (mole fraction) (in ethanol, 283.55 K): 0.00166
- solubility (mole fraction) (in ethanol, 290.85 K): 0.00209
- solubility (mole fraction) (in ethanol, 293.55 K): 0.00223
- solubility (mole fraction) (in ethanol, 295.95 K): 0.0024
- solubility (mole fraction) (in ethanol, 298.35 K): 0.00251
- solubility (mole fraction) (in ethanol, 301.55 K): 0.00279
- solubility (mole fraction) (in ethanol, 303.85 K): 0.00294
- solubility (mole fraction) (in ethanol, 306.25 K): 0.00316
- solubility (mole fraction) (in ethanol, 308.25 K): 0.00333
- solubility (mole fraction) (in ethanol, 315.25 K): 0.00396
- solubility (mole fraction) (in ethanol, 318.45 K): 0.00432
- solubility (mole fraction) (in ethanol, 324.85 K): 0.00505
- solubility (mole fraction) (in methanol, 284.45 K): 0.00314
- solubility (mole fraction) (in methanol, 288.75 K): 0.00343
- solubility (mole fraction) (in methanol, 292.15 K): 0.00374
- solubility (mole fraction) (in methanol, 296.35 K): 0.00405
- solubility (mole fraction) (in methanol, 298.45 K): 0.00422
- solubility (mole fraction) (in methanol, 300.75 K): 0.00445 and 0.00463
- solubility (mole fraction) (in methanol, 302.65 K): 0.00495
- solubility (mole fraction) (in methanol, 306.65 K): 0.00513
- solubility (mole fraction) (in methanol, 308.45 K): 0.00568
- solubility (mole fraction) (in methanol, 313.65 K): 0.00619
- solubility (mole fraction) (in methanol, 318.25 K): 0.00676
- solubility (mole fraction) (in n-butanol, 285.45 K): 0.00115
- solubility (mole fraction) (in n-butanol, 288.85 K): 0.00131
- solubility (mole fraction) (in n-butanol, 293.25 K): 0.00154
- solubility (mole fraction) (in n-butanol, 295.45 K): 0.00164
- solubility (mole fraction) (in n-butanol, 298.15 K): 0.00177
- solubility (mole fraction) (in n-butanol, 301.75 K): 0.002
- solubility (mole fraction) (in n-butanol, 303.75 K): 0.00219
- solubility (mole fraction) (in n-butanol, 306.35 K): 0.00235
- solubility (mole fraction) (in n-butanol, 308.85 K): 0.00258
- solubility (mole fraction) (in n-butanol, 313.45 K): 0.00292
- solubility (mole fraction) (in n-butanol, 317.45 K): 0.00335
- solubility (mole fraction) (in n-butanol, 322.25 K): 0.00392
- solubility (mole fraction) (in n-propanol, 283.75 K): 0.00127
- solubility (mole fraction) (in n-propanol, 290.75 K): 0.00162
- solubility (mole fraction) (in n-propanol, 294.75 K): 0.00187
- solubility (mole fraction) (in n-propanol, 296.95 K): 0.00198
- solubility (mole fraction) (in n-propanol, 298.55 K): 0.00207
- solubility (mole fraction) (in n-propanol, 300.15 K): 0.00215
- solubility (mole fraction) (in n-propanol, 303.05 K): 0.00241
- solubility (mole fraction) (in n-propanol, 306.25 K): 0.00262
- solubility (mole fraction) (in n-propanol, 308.75 K): 0.00285
- solubility (mole fraction) (in n-propanol, 314.35 K): 0.00331
- solubility (mole fraction) (in n-propanol, 318.35 K): 0.0037
- solubility (mole fraction) (in n-propanol, 325.35 K): 0.00463
